Data taken from patent US9657037B2, “Pyrrole compounds with silicon incorporation” (COUNCIL OF SCIENTIFIC AND INDUSTRIAL RESEARCH, priority 2013, dated 2017).
In brackets after ≈: the same amount, converted by molar mass. Read-outs that look alike come from different tables or passages of the source.

How the values were obtained:
[1] = test system: Mycobacterium tuberculosis H37Rv; assay: Antitubercular activity, growth inhibition by Alamar-Blue / resazurin microtiter assay; type: cell-based
[2] = test system: Mycobacterium tuberculosis H37Rv; settings: according to literature (Biava. M et. al; J. Med. Chem 2008; 51; 3644); cited from earlier work

Structure (SMILES)	MIC ([1]; H37RV)	MIC [2]	MIC ([1]; H37Rv, 7H9-OADC media with 0.5% glycerol and 1 mg ml−1 tryptone, 37° C., 96-well plates, visual readout, read-out: MIC)
Cc1ccc(-c2cc(CN3CC[Si](C)(C)CC3)c(C)n2-c2ccc(F)cc2)cc1 [Compound 17, 1-((1-(4-fluorophenyl)-2-methyl-5-(p-tolyl)-1H-pyrrol-3-yl)methyl)-4,4-dimethyl-1,4-azasilinane]	0.04 µg/mL (≈ 0.0984 µM)	–	–
Cc1c(CN2CCN(C)CC2)cc(-c2ccc(Cl)cc2)n1-c1ccc(Cl)cc1 [BM212, 1,5-diaryl-2-methyl-3-(4-methylpiperazin-1-yl)methyl-pyrrole, reference compound]	–	0.7 µg/mL (≈ 1.69 µM)	1.56 µg/mL (≈ 3.76 µM)
CSc1ccc(-c2c(CN3CC[Si](C)(C)CC3)cc(C)n2-c2ccc(F)cc2)cc1 [Compound 10b, 1-((1-(4-fluorophenyl)-5-methyl-2-(4-(methylthio)phenyl)-1H-pyrrol-3-yl)methyl)-4,4-dimethyl-1,4-azasilinane]	1.56 µg/mL (≈ 3.56 µM)	–	–
CCOc1ccc(-c2c(CN3CC[Si](C)(C)CC3)cc(C)n2-c2ccc(OC)cc2)cc1 [Compound 18, 1-((2-(4-ethoxyphenyl)-1-(4-methoxyphenyl)-5-methyl-1H-pyrrol-3-yl)methyl)-4,4-dimethyl-1,4-azasilinane]	5 µg/mL (≈ 11.1 µM)	–	–
CSc1ccc(-c2cc(CN3CC[Si](C)(C)CC3)c(C)n2-c2ccc(C(C)C)cc2)cc1 [Compound 12a, 1-((1-(4-isopropylphenyl)-2-methyl-5-(4-(methylthio)phenyl)-1H-pyrrol-3-yl)methyl)-4,4-dimethyl-1,4-azasilinane]	0.04 µg/mL (≈ 0.0864 µM)	–	–
Cc1c(CN2CC[Si](C)(C)CC2)cc(-c2ccc(C(C)C)cc2)n1-c1ccc(Cl)cc1 [Compound 11a, 1-((1-(4-chlorophenyl)-5-(4-isopropylphenyl)-2-methyl-1H-pyrrol-3-yl)methyl)-4,4-dimethyl-1,4-azasilinane]	0.04 µg/mL (≈ 0.0887 µM)	–	–
CSc1ccc(-c2c(CN3CC[Si](C)(C)CC3)cc(C)n2-c2ccc(C(C)C)cc2)cc1 [Compound 12b, 1-((1-(4-isopropylphenyl)-5-methyl-2-(4-(methylthio)phenyl)-1H-pyrrol-3-yl)methyl)-4,4-dimethyl-1,4-azasilinane]	1.25 µg/mL (≈ 2.7 µM)	–	–
Cc1c(CN2CC[Si](C)(C)CC2)cc(-c2ccc(Cl)cc2)n1-c1ccc(Cl)cc1 [Compound 9, 1-((1,5-bis(4-chlorophenyl)-2-methyl-1H-pyrrol-3-yl)methyl)-4,4-dimethyl-1,4-azasilinane]	0.04 µg/mL (≈ 0.0902 µM)	–	–
CSc1ccc(-c2cc(CN3CC[Si](C)(C)CC3)c(C)n2-c2ccc(F)cc2)cc1 [Compound 10a, 1-((1-(4-fluorophenyl)-2-methyl-5-(4-(methylthio)phenyl)-1H-pyrrol-3-yl)methyl)-4,4-dimethyl-1,4-azasilinane]	0.08 µg/mL (≈ 0.182 µM)	–	–
CCc1ccc(-n2c(-c3ccc(Cl)cc3)cc(CN3CC[Si](C)(C)CC3)c2C)cc1 [Compound 13, 1-((5-(4-chlorophenyl)-1-(4-ethylphenyl)-2-methyl-1H-pyrrol-3-yl)methyl)-4,4-dimethyl-1,4-azasilinane]	0.08 µg/mL (≈ 0.183 µM)	–	–
Cc1c(CN2CC[Si](C)(C)CC2)cc(-c2ccc(Cl)cc2)n1-c1ccccc1 [Compound 15, 1-((5-(4-chlorophenyl)-2-methyl-1-phenyl-1H-pyrrol-3-yl)methyl)-4,4-dimethyl-1,4-azasilinane]	0.04 µg/mL (≈ 0.0978 µM)	–	–
Cc1c(CN2CC[Si](C)(C)CC2)cc(-c2ccc(Cl)cc2)n1-c1ccc(C(C)C)cc1 [Compound 19, 1-((5-(4-chlorophenyl)-1-(4-isopropylphenyl)-2-methyl-1H-pyrrol-3-yl)methyl)-4,4-dimethyl-1,4-azasilinane]	0.04 µg/mL (≈ 0.0887 µM)	–	–
CCc1ccc(-c2cc(CN3CC[Si](C)(C)CC3)c(C)n2-c2ccc(OC)cc2)cc1 [Compound 16, 1-((5-(4-ethylphenyl)-1-(4-methoxyphenyl)-2-methyl-1H-pyrrol-3-yl)methyl)-4,4-dimethyl-1,4-azasilinane]	0.08 µg/mL (≈ 0.185 µM)	–	–
COc1ccc(-c2c(CN3CC[Si](C)(C)CC3)cc(C)n2-c2ccc(F)cc2)cc1 [Compound 14, 1-((1-(4-fluorophenyl)-2-(4-methoxyphenyl)-5-methyl-1H-pyrrol-3-yl)methyl)-4,4-dimethyl-1,4-azasilinane]	3.12 µg/mL (≈ 7.38 µM)	–	–
